In patent US8198311B2, “Modulators of glucocorticoid receptor, AP-1, and/or NF-κB activity and use thereof” (Bristol-Myers Squibb Company, priority 2006, dated 2012):
Read-outs that look alike come from different tables or passages of the source.

What was measured:
[1] = test system: AP-1 induced transcriptional activity; assay: Cellular Transrepressional Assay (AP-1 luciferase reporter in A549 cells, PMA-activated); type: cell-based; details: pAP-1-Luc, 10 ng/ml PMA, read-out: AP-1 (EC50, nM) (Cellular Transrepression Assay)
Procedure: To measure the ability of test molecules to inhibit AP-1 induced transcriptional activity an A549 cell was utilized which was stably transfected with a plasmid containing 7×AP-1 DNA binding sites (pAP-1-Luc plasmid, Stratagene Co. La Jolla, Calif.) followed by the gene for luciferase. Cells were activated with 10 ng/ml of phorbol myristic acid (PMA) plus or minus test molecules for 7 hours. After 7 hours a luciferase reagent was added to measure luciferase enzymatic activity in the cell. After a 10 minute incubation of luciferase reagent with cells, luminescence was measured in a TopCount luminescence counter. Repression of AP-1 activity was calculated as the percentage decrease in the signal induced by PMA alone. Test molecules were analyzed in the concentration range from 0.1 nM to 40 μM. EC50s were determined by using standard curve fitting methods such as Excel fit (Microsoft Co.).

[2] = target: T1, human glucocorticoid receptor (Homo sapiens, UniProt P04150); assay: Glucocorticoid Receptor Binding Assay (I), fluorescence polarization competitor kit (Fluormone GS Red); details: purified human recombinant full-length GR
T1 construct: purified human recombinant full-length glucocorticoid receptor (2 nM); purchased Invitrogen Part # 2893
T1 sequence (P04150 1-777): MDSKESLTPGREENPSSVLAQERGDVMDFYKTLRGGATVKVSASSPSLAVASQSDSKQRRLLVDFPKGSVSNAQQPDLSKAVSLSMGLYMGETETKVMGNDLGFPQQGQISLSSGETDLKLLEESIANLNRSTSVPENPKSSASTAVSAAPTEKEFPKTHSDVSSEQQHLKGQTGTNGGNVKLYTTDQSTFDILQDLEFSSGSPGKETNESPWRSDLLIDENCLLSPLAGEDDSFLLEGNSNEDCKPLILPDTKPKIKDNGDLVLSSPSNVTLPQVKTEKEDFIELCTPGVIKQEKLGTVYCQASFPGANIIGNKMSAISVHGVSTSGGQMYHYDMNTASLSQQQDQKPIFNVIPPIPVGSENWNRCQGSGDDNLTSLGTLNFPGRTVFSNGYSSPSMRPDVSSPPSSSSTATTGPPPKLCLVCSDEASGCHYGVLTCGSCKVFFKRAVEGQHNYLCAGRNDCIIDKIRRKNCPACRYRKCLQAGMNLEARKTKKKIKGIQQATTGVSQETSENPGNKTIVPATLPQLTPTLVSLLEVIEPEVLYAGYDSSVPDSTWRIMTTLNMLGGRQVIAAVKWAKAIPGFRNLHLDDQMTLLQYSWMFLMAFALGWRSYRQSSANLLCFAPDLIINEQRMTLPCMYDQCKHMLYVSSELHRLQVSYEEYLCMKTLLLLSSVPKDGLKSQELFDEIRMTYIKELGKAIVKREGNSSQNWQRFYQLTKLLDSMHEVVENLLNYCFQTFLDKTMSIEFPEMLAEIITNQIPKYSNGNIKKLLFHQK
Procedure: In order to assess the affinity of test compounds for the human glucocorticoid receptor, a commercially available kit was used (Glucocorticoid Receptor Competitor Assay Kit, Invitrogen Part # 2893). Briefly, purified human recombinant full-length glucocorticoid receptor (2 nM) was mixed with fluorescently labeled glucocorticoid (1 nM Fluormone GS Red) in the presence or absence of test compound. After two hour incubation at room temperature in the dark, the fluorescence polarization (FP) of the samples was measured. […] Test compounds were analyzed in the concentration range from 8.5E-05 μM to 5 μM.

| EC50 ([1]; Homo sapiens, A549, 7 h) [nM] | Ki [2] [nM] | EC50 ([1]; 7 hours) [nM] | Structure (SMILES) |
| --- | --- | --- | --- |
| 306 | 1.8 | – | Cc1cc(C(C)(C)NC(=O)NCC(C)(C)C(CC(C)C)c2ccc3c(cnn3-c3ccc(F)cc3)c2)ccn1 (stereo not shown) [Example 53, 1-(3-(1-(4-fluorophenyl)-1H-indazol-5-yl)-2,2,5-trimethylhexyl)-3-(2-(2-methylpyridin-4-yl)propan-2-yl)urea] |
| – | 55 | – | C#CC(C)(C)NC(=O)NCC(C)(C)C(CC(C)C)c1ccc2c(cnn2-c2ccc(F)cc2)c1 (stereo not shown) [Example 72, 1-(3-(1-(4-fluorophenyl)-1H-indazol-5-yl)-2,2,5-trimethylhexyl)-3-(2-methylbut-3-yn-2-yl)urea] |
| – | 2.1 | 5.7 | CC(CNS(=O)(=O)CC(F)(F)F)C(c1ccccc1)c1ccc2c(cnn2-c2ccc(F)cc2)c1 (single isomer, unassigned) [Example 91A, 2,2,2-trifluoro-N-(3-(1-(4-fluorophenyl)-1H-indazol-5-yl)-2-methyl-3-phenylpropyl)ethanesulfonamide] |
| 573 | – | – | CC(C)(CNC(=O)c1cccs1)[C@H](c1ccccc1)c1ccc2c(cnn2-c2ccc(F)cc2)c1 [Example 20, (R)-N-(3-(1-(4-fluorophenyl)-1H-indazol-5-yl)-2,2-dimethyl-3-phenylpropyl)thiophene-2-carboxamide] |
| 349 | 5.9 | – | CC(C)C(c1ccc2c(cnn2-c2ccc(F)cc2)c1)C(C)(C)CNC(=O)NC(C)(C)C (stereo not shown) [Example 103, 1-tert-butyl-3-(3-(1-(4-fluorophenyl)-1H-indazol-5-yl)-2,2,4-trimethylpentyl)urea] |
| 304 | 3.3 | – | CC(C)(C)NC(=O)NCC(C)(C)C(c1ccc2c(cnn2-c2ccc(F)cc2)c1)C1CCCC1 (stereo not shown) [Example 106, 1-tert-butyl-3-(3-cyclopentyl-3-(1-(4-fluorophenyl)-1H-indazol-5-yl)-2,2-dimethylpropyl)urea] |
| > 10000 | 5.8 | – | CC(C)CC(c1ccc2c(cnn2-c2ccc(F)cc2)c1)C(C)(C)CNC(=O)NC1CCOCC1 (stereo not shown) [Example 37, 1-(3-(1-(4-fluorophenyl)-1H-indazol-5-yl)-2,2,5-trimethylhexyl)-3-(tetrahydro-2H-pyran-4-yl)urea] |
| – | 2.4 | 7.4 | CC(CNC(=O)CC(F)(F)F)C(c1ccccc1)c1ccc2c(cnn2-c2ccc(F)cc2)c1 (single isomer, unassigned) [Example 90C, 3,3,3-trifluoro-N-(3-(1-(4-fluorophenyl)-1H-indazol-5-yl)-2-methyl-3-phenylpropyl)propanamide] |
| 624 | 3 | – | CC(C)CC(c1ccc2c(cnn2-c2ccc(F)cc2)c1)C(C)(C)CNC(=O)NC(C)(C)CC(=O)O (stereo not shown) [Example 51, 3-(3-(3-(1-(4-fluorophenyl)-1H-indazol-5-yl)-2,2,5-trimethylhexyl)ureido)-3-methylbutanoic acid] |
| > 10000 | 6.3 | – | CC(C)CC(c1ccc2c(cnn2-c2ccc(F)cc2)c1)C(C)(C)CNC(=O)NC1(C)CCS(=O)(=O)C1 (stereo not shown) [Example 38] |
| 17 | 3.7 | – | CCC(CNS(=O)(=O)CC(F)(F)F)C(c1ccccc1)c1ccc2c(cnn2-c2ccc(F)cc2)c1 (stereo not shown) [Example 98, 2,2,2-Trifluoro-N-(2-((1-(4-fluorophenyl)-1H-indazol-5-yl)(phenyl)methyl)butyl)ethanesulfonamide] |
| > 10000 | 20 | – | CCNC(=O)NCC(C)(C)C(C)(C)c1ccc2c(cnn2-c2ccc(F)cc2)c1 [Example 117, 1-ethyl-3-(3-(1-(4-fluorophenyl)-1H-indazol-5-yl)-2,2,3-trimethylbutyl)urea] |
| > 10000 | 3.7 | – | CC(C)CC(c1ccc2c(cnn2-c2ccc(F)cc2)c1)C(C)(C)CNC(=O)[C@H](O)C(C)(C)C (single isomer, unassigned) [Example 69 diastA, N-(3-(1-(4-fluorophenyl)-1H-indazol-5-yl)-2,2,5-trimethylhexyl)-2-hydroxy-3,3-dimethylbutanamide] |
| 143 | 7.4 | – | CC(C)CC(c1ccc2c(cnn2-c2ccc(F)cc2)c1)C(C)(C)CNC(=O)N[C@@H](C)C(C)(C)C (stereo partly drawn) [Example 77, 1-((S)-3,3-dimethylbutan-2-yl)-3-(3-(1-(4-fluorophenyl)-1H-indazol-5-yl)-2,2,5-trimethylhexyl)urea] |
| 628 | 8.9 | – | CC(C)CC(c1ccc2c(cnn2-c2ccc(F)cc2)c1)C(C)(C)CNC(=O)N[C@H](C)c1cccc2ccccc12 (stereo partly drawn) [Example 75, 1-(3-(1-(4-fluorophenyl)-1H-indazol-5-yl)-2,2,5-trimethylhexyl)-3-((R)-1-(naphthalene-1-yl)ethyl)urea] |
| 2780 | – | – | CN(C)S(=O)(=O)NCC(C)(C)[C@@H](c1ccccc1)c1ccc2c(cnn2-c2ccc(F)cc2)c1 [Example 15, (S)-N-dimethyl-N′-(3-(1-(4-fluorophenyl)-1H-indazol-5-yl)-2,2-dimethyl-3-phenylpropyl)propane-1-sulfamide] |
| 2270 | – | – | CC(C)(CNC(=O)C(F)(F)F)[C@@H](c1ccccc1)c1ccc2c(cnn2-c2ccc(F)cc2)c1 [(S)-16, (S)-2,2,2-trifluoro-N-(3-(1-(4-fluorophenyl)-1H-indazol-5-yl)-2,2-dimethyl-3-phenylpropyl)acetamide] |
| – | 22 | – | CC(C)(CNC(=O)CC(F)(F)F)C1(c2ccc3c(cnn3-c3ccc(F)cc3)c2)CCOCC1 [Example 113, 3,3,3-Trifluoro-N-(2-(4-(1-(4-fluorophenyl)-1H-indazol-5-yl)tetrahydro-2H-pyran-4-yl)-2-methylpropyl)propanamide] |
| 2520 | – | – | CC(C)(CNC(=O)Cc1ccccc1)[C@@H](c1ccccc1)c1ccc2c(cnn2-c2ccc(F)cc2)c1 [Example 3, (S)-N-(3-(1-(4-fluorophenyl)-1H-indazol-5-yl)-2,2-dimethyl-3-phenylpropyl)-2-phenylacetamide] |
| 508 | – | – | CC(C)CCC(=O)NCC(C)(C)[C@@H](c1ccccc1)c1ccc2c(cnn2-c2ccc(F)cc2)c1 [Example 2, (S)-N-(3-(1-(4-fluorophenyl)-1H-indazol-5-yl)-2,2-dimethyl-3-phenylpropyl)-4-methylpentanamide] |
| 211 | – | – | CC(C)(CNS(=O)(=O)C1CC1)[C@@H](c1ccccc1)c1ccc2c(cnn2-c2ccc(F)cc2)c1 [Example 12, (S)-N-(3-(1-(4-fluorophenyl)-1H-indazol-5-yl)-2,2-dimethyl-3-phenylpropyl)cyclopropanesulfonamide] |
| 1280 | – | – | CC(C)C(=O)NCC(C)(C)[C@@H](c1ccccc1)c1ccc2c(cnn2-c2ccc(F)cc2)c1 [Example 4, (S)-N-(3-(1-(4-fluorophenyl)-1H-indazol-5-yl)-2,2-dimethyl-3-phenylpropyl)isobutyramide] |
| 1860 | – | – | CC(C)(CNS(=O)(=O)CS(C)(=O)=O)[C@@H](c1ccccc1)c1ccc2c(cnn2-c2ccc(F)cc2)c1 [Example 14, (S)-N-(3-(1-(4-fluorophenyl)-1H-indazol-5-yl)-2,2-dimethyl-3-phenylpropyl)-1-(methylsulfonyl)methanesulfonamide] |
| 1060 | – | – | CC(C)(C)C(=O)NCC(C)(C)[C@@H](c1ccccc1)c1ccc2c(cnn2-c2ccc(F)cc2)c1 [Example 5, (S)-N-(3-(1-(4-fluorophenyl)-1H-indazol-5-yl)-2,2-dimethyl-3-phenylpropyl)pivalamide] |
